Columns and labels:
[1] = system: Copepodids (juvenile sea lice stage of Lepeophtheirus salmonis); test: Juvenile sea lice contact assay; settings: Lepeophtheirus salmonis; 10 nM in seawater; ~24 h; read-out: Sea lice inhibition (% of dead+damaged copepodids)
Experimental: Copepodids (juvenile sea lice stage of Lepeophtheirus salmonis) were exposed to seawater spiked with declining concentrations of a test compound (dissolved in a DMSO sea-water mixture). Sea lice inhibition (% of dead+damaged copepodids) was assessed after approximately 24 hours of continuous exposure. The vitality of used parasites was confirmed in a negative (solvent) control group.

[2] = system: Mobile stages of sea lice (pre-adults, adults of Lepeophtheirus salmonis); test: Adult sea lice contact assay; settings: pre-adults/adults, assessed after ~1 and 24 h, read-out: EC50 (sea lice inhibition, dead+damaged)
Experimental: Mobile stages of sea lice (i.e., pre-adults, adults of Lepeophtheirus salmonis) were exposed to seawater spiked with declining concentrations of a test compound (dissolved in a PEG sea-water mixture). Sea lice inhibition (% of dead+damaged sea lice) was assessed after approximately 1 and 24 hours of continuous exposure in comparison to a negative (solvent) control group.

[3] = system: juvenile soft ticks (Ornithodoros moubata); test: Guinea pig - efficacy against argaside tick; format: in vivo; settings: Day 0
Method in brief: (§1)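 Guinea pigs given 5 mg/kg test compound orally (gavage) or s.c. in 10% DMF/emulsifier plus 90% water for injection, with local co-infestations of Ornithodoros moubata juveniles and Cimex lectularius at several post-treatment times. Engorged parasites scored dead/damaged about 24 h after collection; % inhibition versus pretreatment baseline by modified Schneider-Orelli formula.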

[4] = system: bed bugs (Cimex lectularius); test: Guinea pig - efficacy against bed bug; format: in vivo
Method in brief: as §1

Lepeophtheirus salmonis [5] = test: Salmon - in vivo efficacy against sea lice using gavage administration; settings: 5 mg/kg once by gavage, counted around day 28; for therapeutic efficacy against juvenile sea lice (% reduction vs control): day -3 infestation
Experimental: Salmon (Salmo solar) were treated once orally by gavage at a dose of 5 mg/kg bodyweight per fish (Day 0). As formulation DMSO 5%/fish oil 95% was used. Salmon of the negative control group received only the excipients of the formulation.
The fish were infested with Lepeophtheirus salmonis copepodids twice before treatment (i.e., around day −28 and day −3) and once after treatment (i.e., day 17).
Around day 28 (end of animal phase), fish were euthanized, and lice on each fish were classified ((pre-)adult or juvenile stage) and counted. […] Efficacy is expressed as a % reduction of sea lice in treated groups versus a control group, using the Abbott's formula.

Lepeophtheirus salmonis [6] = test: as above; settings: po, 168 h, read-out: therapeutic efficacy against (pre-)adult sea lice (% reduction vs control), salmon, 5 mg/kg once by gavage, day -28 infestation, counted day 7

| Compound | inhibition at 0.01 µM [1] [%] | EC50 [2] [nM] | activity against tick nymphs (≥80% inhibition, killed+damaged) ([3]; 5 mg/kg oral) | activity against tick nymphs (≥80% inhibition, killed+damaged) ([3]; 5 mg/kg subcutaneous) | activity against bed bugs (≥80% inhibition, killed+damaged) ([4]; 5 mg/kg oral, Day 0) | activity against bed bugs (≥80% inhibition, killed+damaged) ([4]; 5 mg/kg subcutaneous, Day 0) | prophylactic efficacy at re-infestation on Day 17 (% reduction vs control) (Lepeophtheirus salmonis [5]) [%] | therapeutic efficacy against juvenile sea lice (% reduction vs control) (Lepeophtheirus salmonis [5]) [%] | inhibition in vivo at 5 mg/kg (Lepeophtheirus salmonis [6]) [%] | activity against bed bugs (≥80% inhibition, killed+damaged) ([4]; 5 mg/kg oral, after 7 days) | activity against bed bugs (≥80% inhibition, killed+damaged) ([4]; 5 mg/kg subcutaneous, after 7 days) |
| --- | --- | --- | --- | --- | --- | --- | --- | --- | --- | --- | --- |
| O=C(Nc1c(F)ccnc1F)c1cc(NC(=O)[C@H]2[C@H](c3cc(Cl)cc(Cl)c3)C2(Cl)Cl)ccc1Cl [Compound 456] | 100 | ≤ 10 | immediate activity | immediate activity | immediate activity | immediate activity | 80 | 100 | 80 |  |  |
| O=C(Nc1ncc(F)cn1)c1cc(NC(=O)[C@H]2[C@H](c3cc(Cl)cc(Cl)c3)C2(Cl)Cl)ccc1Cl [Compound 460] | 100 | ≤ 10 | immediate activity | immediate activity | immediate activity | immediate activity |  | 100 | 100 | activity | activity |
